In US12384746B2, “Physics-driven discovery of novel small therapeutic compounds for use as a BCL-2 inhibitor” (BAHCESEHIR UNIVERSITESI, priority 2020, dated 2025):
Peptide text beside a SMILES is read from it. * marks the point of attachment. Boc = CC(C)(C)OC(=O)*

Tested on: HCT-116 cells
Assay: MTT cell proliferation assay on HCT-116 cells
Type: cell-based
Method: For cell culture experiments various cancer cell lines, HCT-116 colon cancer, U87-MG glial tumor, MCF7 breast cancer cell lines were used. Cells were seeded with high glucose DMEM medium (Biosera) supplemented with 10% FBS (Gibco) and 1× penicillin/streptomycin (Multicell). Twenty-four hours prior to molecule treatment, 10,000 cells were seeded into each well of 24-well cell culture plates. Molecules were used by preparing 4 mM stock solution in DMSO (Amresco). For molecule treatment, molecule stock solutions were diluted in DMEM with 10% FBS and added onto cells in each corresponding well. Final concentration of vehicle DMSO was 2% at maximum. […] We calculated the number of cells to be seeded to make sure that none of the cells reaches more than 60% confluency during the treatment period, as higher plate confluency levels would slow down cell proliferation independently from the molecule treatment.
Values of half-maximal inhibitory concentration were (IC50) determined by MTT cell proliferation assays. […] 570 nm absorbance values were recorded and IC50 values were calculated by dose response—inhibition curves and nonlinear regression analysis on GraphPad Prism 8 software. […] Following the initial incubation day, molecules were added and after incubation with MTT at 37° C. for 4 hours, formazan was solubilized with DMSO (Sigma-Aldrich, St. Louis, USA) and absorbance was measured at 570 nm. […]

IC50 (Homo sapiens, 72 h, HCT-116 colon cancer cells, single treatment, three days, 570 nm absorbance, read-out: IC50 (half-maximal inhibitory concentration), MTT cell proliferation): 17 µM
SMILES: CCC(C)C(NC(=O)C(Cc1c[nH]c2ccccc12)NC(=O)OC(C)(C)C)C(=O)NC(CC(C)C)C(N)=O (stereo not drawn) [compound of formula I] (Boc-Trp-Ile-Leu-NH2; configuration not given here)
proliferation of HCT-116 cells compared to vehicle group (HCT-116 cells, MTT assay, FIG. 1): reduced proliferation and apoptotic cell structures
